Data set [1] is described as follows: Free fraction of drug in mouse plasma, rapid equilibrium dialysis. Format: in vitro ADME. The source says: (§1) Method for detecting free fraction of drug in plasma: Compounds were screened for binding to human and mouse plasma (Bioreclamation, IVT) using a rapid equilibrium dialysis device (Thermo Fisher Scientific) and compounds subsequently detected by LC-MS/MS. Percent free drug equals the concentration of compound in buffer chamber divided by that in the […] chamber×100.
(In general: In equilibrium dialysis free small molecules cross a membrane that holds back macromolecules.)

Data set [2] deals with estrogen-responsive reporter gene, ERE-tk109-Luc. Nature of the data set: Inhibition of E2-induced transcription, ERE-tk109-Luc reporter in transfected MCF-7 cells. The note with it: Homo sapiens, MCF7. It counts as cell-based. The protocol: Representative compounds were tested for their inhibitory activity of estrogen according to the assay methods described in Hodges-Gallagher, L., Valentine, C. […] Specifically, MCF-7 cells were transiently transfected with an estrogen-responsive reporter gene, ERE-tk109-Luc. […] Luciferase activity was normalized to activity of E2 alone and IC50's were calculated using the least squares fit method.

Data set [3] is described as follows: Free fraction of drug in human plasma, rapid equilibrium dialysis. Format: in vitro ADME.
From the text: as §1

Data set [4] has as its system MCF-7 breast cancer cells. Nature of the data set: Inhibition of E2-stimulated proliferation of MCF-7 cells (Cyquant). It counts as cell-based. The conditions noted are these: Homo sapiens, MCF7. The protocol:
Proliferation of MCF-7 breast cancer cells was measured using Cyquant, a fluorescent DNA-binding dye (Thermo Fisher Scientific). MCF-7 cells were treated with antiestrogens in triplicate in hormone-depleted medium for 5-7 days in the presence of 100 pM E2. Fluorescent activity was normalized to the activity of E2 alone and IC50's were calculated using the least squares fit method.

Data set [5] is described as follows: Pharmacokinetics in BALB/c female mice, oral gavage. It counts as in vivo. The note with it: for oral drug exposure, free fraction taken into account, vs equal dose of Compounds 107 and 102: mice, oral gavage, FIGS. 1A-1B. How it is done: Pharmacokinetics were studied in BALB/c female mice. For each arm, three BALB/c female mice were given 5 mg/kg of compound in 0.5% CMC formulation by oral gavage. Concentration of compounds in mouse plasma and their metabolites were analyzed at each time point using LC-MS/MS. The concentrations were adjusted for the free fraction of drug in mouse plasma (method below). Area under the curve was calculated using the trapezoidal rule for 0-24 hours.

Data set [6] addresses T1, ERα (Homo sapiens (Human), UniProt P03372). Description: ER degradation in MCF-7 cells, immunoblot. It counts as cell-based. The note with it: 100 nM, 24 hours, serum-free medium. How it is done:
MCF-7 cells were treated with 100 nM anti-estrogen for 24 hours in serum-free medium and protein extracts immunoblotted with D12 antibody to ERα and β-actin (Santa Cruz Biotechnology). The numbers below the blots represent the optical density of ERα bands of each treatment relative to percent vehicle after normalization to β-actin.
(Immunoblotting shows a protein as a band on a membrane.)

The target of data set [7] is T1, ERα. Description: ERα levels in MCF-7 cells, in-cell western (Colorimetric In-Cell ELISA). Format: cell-based. The note with it: for Relative change in ERα levels in breast cells % Veh: MCF-7, 24 hours. The protocol:
IC50's were calculated using the least squares fit method. Error bars represent S.E.M from triplicate wells.
On the technique in general: An ELISA detects its analyte on a solid surface through an enzyme-linked reagent.

Data set [8] relates to MCF-7 (HER2/neu) tumors. Nature of the data set: Xenograft study, Clone 18 (MCF7/Her2/neu) tumors in athymic ovariectomized nu/nu mice. It counts as in vivo. The note with it: oral gavage, 10 mg/kg, FIGS. 5A-B. How it is done:
Xenograft studies were conducted by the Preclinical Therapeutics Core at the University of California, San Francisco in accordance with the Institutional Animal Care and Use Committee (IACUC) guidelines. Clone 18 cells (MCF7/Her2/neu) cells were grown in culture and implanted into athymic ovariectomized nu/nu mice. To stimulate tumor growth 0.36 mg estradiol 90 day release pellets (Innovative Research, Saratoga, Fla.) were implanted along with cells. When tumors reached 150-250 cubic millimeters the pellets were exchanged for 0.18 mg estradiol 90 day release pellets and divided into groups of six mice per treatment group. One of those groups received vehicle only (0.5% CMC+8% DMSO), and Compound B and Compound C each had 2 groups treated with either 10 or 100 mg/kg compound. Compounds were administered by oral gavage twice daily, except once daily on weekends/holidays for the first 21 days, and once daily after day 21. Tumors and bodyweight were measured twice weekly.

Data set [9] has as its system AP activity in ECC-1 cells. Nature of the data set: Alkaline phosphatase (AP) assay in ECC-1 uterine cells, antagonist mode (co-treated with 500 pM E2). Format: cell-based, human. The conditions noted are these: 100 nM antiestrogen. The protocol: Method for performing the alkaline phosphatase (AP) assay. ECC-1 cells were trypsinized and resuspended in hormone-depleted media and plated at a density of 15 k cells per well into a 96-well plate for at least 4 hours. Cells were treated with antiestrogens for 3 days and plates were subsequently frozen at −80° C. […] AP activity was normalized to the activity of E2 alone.

Data set [10] concerns AP activity in ECC-1 cells. Nature of the data set: Alkaline phosphatase (AP) assay in ECC-1 uterine cells, agonist mode. It counts as cell-based, human. The conditions noted are these: mean of n. How it is done:
Method for performing the alkaline phosphatase (AP) assay. ECC-1 cells were trypsinized and resuspended in hormone-depleted media and plated at a density of 15 k cells per well into a 96-well plate for at least 4 hours. Cells were treated with antiestrogens for 3 days and plates were subsequently frozen at −80° C. Thawed plates were incubated with a chromogenic substrate of AP, p-nitrophenyl phosphate (Thermo Fisher Scientific), for 40 minutes at 40° C. and absorbances were read at 405 nm. AP activity was normalized to the activity of E2 alone. […] A representative result for induction of AP activity in uterine cells (% E2) is shown below in tabular form: […]

Setting [11] is: MCF-7, 100 pM E2, 22 hours, read-out: inhibition of E2-induced transcription in breast cells IC50.
[12] abbreviates: Table 1, read-out: ERE-Luc IC50.
[13] abbreviates: mean of n, read-out: Inhibition of E2-stimulated transcription in breast cells pIC50 (converted).
Where [14] appears, read: MCF-7, 100 pM E2, 5-7 days, read-out: inhibition of E2-stimulated proliferation in breast cells IC50.
The mark [15] stands for this setting: Table 1, read-out: MCF-7 Proliferation IC50.
[16] abbreviates: BALB/c mice, 5 mg/kg oral gavage.
The mark [17] stands for this setting: mean of n, read-out: Inhibition of E2-stimulated proliferation in breast cells pIC50 (converted).

The structures appear in SMILES notation. Entries after “also recorded” stand apart in the source; their conditions may differ. Like-named read-outs stand apart in the source and are kept apart here.

T1 sequence (P03372 whole entry): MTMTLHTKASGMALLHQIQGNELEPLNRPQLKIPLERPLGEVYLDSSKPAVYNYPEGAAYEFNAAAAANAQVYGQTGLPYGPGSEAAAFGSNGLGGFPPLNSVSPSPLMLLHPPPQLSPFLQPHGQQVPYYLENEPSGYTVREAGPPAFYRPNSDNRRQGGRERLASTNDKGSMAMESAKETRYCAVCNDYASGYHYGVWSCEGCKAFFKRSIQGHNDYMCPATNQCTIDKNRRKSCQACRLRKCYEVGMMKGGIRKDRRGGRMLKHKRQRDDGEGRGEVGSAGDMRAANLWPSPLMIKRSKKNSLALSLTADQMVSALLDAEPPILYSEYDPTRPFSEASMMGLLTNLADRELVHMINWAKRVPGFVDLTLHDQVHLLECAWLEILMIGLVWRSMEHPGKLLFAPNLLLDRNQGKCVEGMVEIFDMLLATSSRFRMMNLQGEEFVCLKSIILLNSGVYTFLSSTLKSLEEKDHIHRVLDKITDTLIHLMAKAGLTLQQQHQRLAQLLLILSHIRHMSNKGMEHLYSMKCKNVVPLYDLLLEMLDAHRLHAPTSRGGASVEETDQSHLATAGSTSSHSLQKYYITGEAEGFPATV

Take `C[C@@H]1Cc2c([nH]c3ccccc23)[C@@H](c2c(F)cc(/C=C/C(=O)O)cc2F)N1CC(C)(C)F` [AZD9496, (E)-3-(3,5-Difluoro-4-((1R,3R)-2-(2-fluoro-2-methylpropyl)-3-methyl-2,3,4,9-tetrahydro-1H-pyrido[3,4-b]indol-1-yl)phenyl)acrylic Acid, reference compound]: the fraction unbound in [1] amounted to 0.00214; in data set [3], 0.00308. In addition, the IC50 in data set [2] (setting [11]) is 0.2 nM; in data set [2] (setting [12]), 0.2 nM; in data set [2] (setting [13]), 0.631 nM.
For `CCCN1CC(Oc2ccc([C@@H]3c4[nH]c5ccccc5c4C[C@@H](C)N3CC(C)(C)F)cc2F)C1` [Compound A, (1R,3R)-2-(2-fluoro-2-methylpropyl)-1-(3-fluoro-4-((1-propylazetidin-3-yl)oxy)phenyl)-3-methyl-2,3,4,9-tetrahydro-1H-pyrido[3,4-b]indole], the IC50 in [4] (setting [14]) is 7.58 nM; in data set [4] (setting [15]) it was 7.58 nM; in data set [2] (setting [11]), 2.96 nM; in [2] (setting [12]), 2.96 nM.
Regarding `CCCN1CC(Oc2ccc([C@@H]3c4[nH]c5ccccc5c4C[C@@H](C)N3CC(C)(C)F)cc2)C1` [Compound B, (1R,3R)-2-(2-fluoro-2-methylpropyl)-3-methyl-1-(4-((1-propylazetidin-3-yl)oxy)phenyl)-2,3,4,9-tetrahydro-1H-pyrido[3,4-b]indole], in data set [5] (setting [16]), the “24 hour drug exposure compared to other compounds” value is “better”. For the same compound, the half-life entry in data set [5] (setting [16]) is “high”. Moreover, in data set [5] (setting [16]), the oral bioavailability result is given as “high”. In addition, the “oral drug exposure, free fraction taken into account, vs equal dose of Compounds 107 and 102” value in data set [5] is recorded as “substantially higher”. Further, the fraction unbound was 0.00027 in [1] and 0.00036 in data set [3]. Further, the “ER degradation in MCF-7 cells (immunoblot, FIG. 7)” value in [6] is on record as “degrades the estrogen receptor”. Further, in [7] (24 hours), the “ER degradation in MCF-7 cells (in-cell western, FIG. 2)” value is on record as “degrades the estrogen receptor”. Further, the “Relative change in ERα levels in breast cells % Veh” value in [7] turned out to be 45 % Veh. Also, the IC50 in data set [4] (setting [14]) was 4.53 nM; in [4] (setting [15]), 4.53 nM; in data set [4] (setting [17]), 7.76 nM; in data set [2] (setting [11]) it was 4.35 nM; in data set [2] (setting [12]), 4.35 nM; in data set [2] (setting [13]), 4.37 nM. Further, the “tumor shrinkage in xenografted mice” value in [8] is “outstandingly potent in shrinking human breast cancer xenografts; also recorded: shrinks MCF-7 (HER2/neu) tumors”.
`C[C@@H]1Cc2c([nH]c3ccccc23)[C@@H](c2ccc(OCCN3CC(CF)C3)cc2)N1CC(C)(C)F` [Compound C, (1R,3R)-2-(2-fluoro-2-methylpropyl)-1-(4-(2-(3-(fluoromethyl)azetidin-1-yl)ethoxy)phenyl)-3-methyl-2,3,4,9-tetrahydro-1H-pyrido[3,4-b]indole]: the “oral drug exposure, free fraction taken into account, vs equal dose of Compounds 107 and 102” value in data set [5] is “substantially higher”. The fraction unbound is 0.00092 in [1] and 0.00151 in data set [3]. In addition, the “Relative change in ERα levels in breast cells % Veh” value in [7] was determined as 42 % Veh. Further, the IC50 in [4] (setting [14]) is 1.3 nM; in [4] (setting [15]), 14.5 nM; in data set [4] (setting [17]) it was 11.7 nM; in [2] (setting [11]), 10.7 nM; in data set [2] (setting [12]), 10.7 nM; in data set [2] (setting [13]), 8.13 nM. In [8], the “tumor shrinkage in xenografted mice” value was “outstandingly potent in shrinking human breast cancer xenografts”.
Take `C[C@@H]1Cc2c([nH]c3ccccc23)[C@@H](c2c(F)cc(OCCN3CC(CF)C3)cc2F)N1CC(C)(C)F` [Compound D, (1R,3R)-1-(2,6-difluoro-4-(2-(3-(fluoromethyl)azetidin-1-yl)ethoxy)phenyl)-2-(2-fluoro-2-methylpropyl)-3-methyl-2,3,4,9-tetrahydro-1H-pyrido[3,4-b]indole]: the fraction unbound in data set [1] came out at 0.00036; in [3], 0.00044. Moreover, the “residual AP activity in uterine cells (% of E2 alone)” value in [9] was 4.07 % E2. Moreover, the IC50 in data set [4] (setting [14]) was 8.4 nM; in data set [4] (setting [15]), 8.4 nM; in data set [4] (setting [17]), 10.5 nM; in data set [2] (setting [11]) it was 10 nM; in [2] (setting [12]), 10 nM; in data set [2] (setting [13]) it was 9.55 nM.
Turning to `C[C@]12CC[C@@H]3c4ccc(O)cc4C[C@@H](CCCCCCCCC[S+]([O-])CCCC(F)(F)C(F)(F)F)[C@H]3[C@@H]1CC[C@@H]2O` (stereo partly drawn) [Fulvestrant, reference compound], the IC50 was 2.1 nM in [4] (setting [14]), 2.63 nM in data set [4] (setting [17]), 1.4 nM in [2] (setting [11]) and 1.91 nM in [2] (setting [13]). This compound showed a fraction unbound in data set [3] of 1e-05.
As to `CCCN1CC(Oc2cc(F)c([C@@H]3c4[nH]c5ccccc5c4C[C@@H](C)N3CC(C)(C)F)c(F)c2)C1` [Goodacre Compound 107, (1R,3R)-1-(2,6-difluoro-4-((1-propylazetidin-3-yl)oxy)phenyl)-2-(2-fluoro-2-methylpropyl)-3-methyl-2,3,4,9-tetrahydro-1H-pyrido[3,4-b]indole, reference compound], the values for the fraction unbound in [1] and in data set [3] were 0.00012 and 0.00013, respectively. Moreover, the IC50 is 7.59 nM in data set [4] (setting [17]) and 4.37 nM in data set [2] (setting [13]). Further, the “Induction of Alkaline Phosphatase (AP) % E2” value in [10] is reported as 0.00 % E2.
Regarding `Oc1ccc2c(c1)CC[C@H](c1ccccc1)[C@@H]2c1ccc(OCCN2CCCC2)cc1` [Lasofoxifene, reference compound], the IC50 is 11 nM in [4] (setting [14]) and 4.6 nM in data set [2] (setting [11]).

The record behind these values is patent publication US11672785B2, “Tetrahydro-1H-pyrido [3,4-b]indole anti-estrogenic drugs” (Olema Pharmaceuticals, Inc., priority 2015, dated 2023).
